From PubChem BioAssay AID1845204 (Molecular Pharmacology Branch, DTP, NCI, 2023)
Several values for one entry are separate records, joined by “and”; a condition that tells them apart may be missing. Equal entries are not always repeated.

Tested on: HSSY-II tumor spheroid viability
Assay: Anticancer human tumor HSSY-II cell line growth inhibition;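 also: spheroids exposed to compounds for seven days before reading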;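 as to viability, T/C: percent of DMSO vehicle control viability so 100% = untreated level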
Settings: spheroids with HUVEC and MSC; for viability, T/C: stronger effect = lower value
In short: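 Single agents and combinations were tested on spheroids built from tumor cells plus HUVEC and hMSC, at half-log dilutions starting at or near clinical Cmax, else 10 microM; final DMSO 0.25% (v/v).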

**Q.** Cn1ncnc1[C@H]1c2n[nH]c(=O)c3cc(F)cc(c23)N[C@@H]1c1ccc(F)cc1 + Cn1nnc2c(C(N)=O)ncn2c1=O was tested. Which IC50 (curve of first compound, second compound 1 µM) did it give?
**A.** 0.0881 µM

**Q.** And the IC50 (curve of first compound, second compound 3.16 µM)?
**A.** 0.0417 µM

**Q.** And the IC50 (curve of first compound, second compound 10 µM)?
**A.** 0.0211 µM

**Q.** What about the IC50 (curve of first compound, second compound 31.6 µM) of the same molecule?
**A.** < 0.00949 µM

**Q.** What about the IC50 (curve of first compound, second compound 100 µM) of the same molecule?
**A.** < 0.00949 µM

**Q.** And the viability, T/C (second compound 1 µM, first compound 0.00949 µM)?
**A.** 86.8%

**Q.** What about the viability, T/C (second compound 1 µM, first compound 0.03 µM) of the same molecule?
**A.** 68.6%

**Q.** And the viability, T/C (second compound 1 µM, first compound 0.0949 µM)?
**A.** 52.6%

**Q.** And the viability, T/C (second compound 1 µM, first compound 0.3 µM)?
**A.** 20.8%

**Q.** And the viability, T/C (second compound 1 µM, first compound 0.949 µM)?
**A.** 10.8%

**Q.** And the viability, T/C (second compound 1 µM, first compound 3 µM)?
**A.** 6.39%

**Q.** What about the viability, T/C (second compound 3.16 µM, first compound 0.00949 µM) of the same molecule?
**A.** 83%

**Q.** What about the viability, T/C (second compound 3.16 µM, first compound 0.03 µM) of the same molecule?
**A.** 50.1%

**Q.** And the viability, T/C (second compound 3.16 µM, first compound 0.0949 µM)?
**A.** 45.6%

**Q.** What about the viability, T/C (second compound 3.16 µM, first compound 0.3 µM) of the same molecule?
**A.** 15.5%

**Q.** What about the viability, T/C (second compound 3.16 µM, first compound 0.949 µM) of the same molecule?
**A.** 9.89%

**Q.** And the viability, T/C (second compound 3.16 µM, first compound 3 µM)?
**A.** 8.35%

**Q.** What about the viability, T/C (second compound 10 µM, first compound 0.00949 µM) of the same molecule?
**A.** 70.3%

**Q.** And the viability, T/C (second compound 10 µM, first compound 0.03 µM)?
**A.** 41.2%

**Q.** What about the viability, T/C (second compound 10 µM, first compound 0.0949 µM) of the same molecule?
**A.** 15.4%

**Q.** What about the viability, T/C (second compound 10 µM, first compound 0.3 µM) of the same molecule?
**A.** 10.5%

**Q.** What about the viability, T/C (second compound 10 µM, first compound 0.949 µM) of the same molecule?
**A.** 8.29%

**Q.** What about the viability, T/C (second compound 10 µM, first compound 3 µM) of the same molecule?
**A.** 6.47%

**Q.** What about the viability, T/C (second compound 31.6 µM, first compound 0.00949 µM) of the same molecule?
**A.** 20.1%

**Q.** What about the viability, T/C (second compound 31.6 µM, first compound 0.03 µM) of the same molecule?
**A.** 10.9%

**Q.** What about the viability, T/C (second compound 31.6 µM, first compound 0.0949 µM) of the same molecule?
**A.** 9.75%

**Q.** And the viability, T/C (second compound 31.6 µM, first compound 0.3 µM)?
**A.** 8.55%

**Q.** And the viability, T/C (second compound 31.6 µM, first compound 0.949 µM)?
**A.** 7.6%

**Q.** What about the viability, T/C (second compound 31.6 µM, first compound 3 µM) of the same molecule?
**A.** 4.67%

**Q.** And the viability, T/C (second compound 100 µM, first compound 0.00949 µM)?
**A.** 8.89%

**Q.** What about the viability, T/C (second compound 100 µM, first compound 0.03 µM) of the same molecule?
**A.** 7.52%

**Q.** What about the viability, T/C (second compound 100 µM, first compound 0.0949 µM) of the same molecule?
**A.** 8.61%

**Q.** What about the viability, T/C (second compound 100 µM, first compound 0.3 µM) of the same molecule?
**A.** 7.59%

**Q.** What about the viability, T/C (second compound 100 µM, first compound 0.949 µM) of the same molecule?
**A.** 6.58%

**Q.** And the viability, T/C (second compound 100 µM, first compound 3 µM)?
**A.** 5.25%

**Q.** Which results are given for CC1COCCN1c1cc(-c2ccnn2C)c2ccnc(-c3ccn[nH]3)c2n1 (configuration not stated) + CC[C@@]1(O)C(=O)OCc2c1cc1n(c2=O)Cc2cc3c(CN(C)C)c(O)ccc3nc2-1?
**A.** IC50 (curve of first compound, second compound 0.003 µM): < 0.0316 µM; IC50 (curve of first compound, second compound 0.00949 µM): < 0.0316 µM; IC50 (curve of first compound, second compound 0.03 µM): < 0.0316 µM; IC50 (curve of first compound, second compound 0.0949 µM): < 0.0316 µM; IC50 (curve of first compound, second compound 0.3 µM): < 0.0316 µM; viability, T/C (second compound 0.003 µM, first compound 0.0316 µM): 6.17%; viability, T/C (second compound 0.003 µM, first compound 0.1 µM): 4.36%; viability, T/C (second compound 0.003 µM, first compound 0.316 µM): 2.62%; viability, T/C (second compound 0.003 µM, first compound 1 µM): 1.92%; viability, T/C (second compound 0.003 µM, first compound 3.16 µM): 1.88%; viability, T/C (second compound 0.003 µM, first compound 10 µM): 2.35%; viability, T/C (second compound 0.00949 µM, first compound 0.0316 µM): 4.45%; viability, T/C (second compound 0.00949 µM, first compound 0.1 µM): 3.49%; viability, T/C (second compound 0.00949 µM, first compound 0.316 µM): 2.45%; viability, T/C (second compound 0.00949 µM, first compound 1 µM): 1.99%; viability, T/C (second compound 0.00949 µM, first compound 3.16 µM): 1.87%; viability, T/C (second compound 0.00949 µM, first compound 10 µM): 2.14%; viability, T/C (second compound 0.03 µM, first compound 0.0316 µM): 3.87%; viability, T/C (second compound 0.03 µM, first compound 0.1 µM): 3.3%; viability, T/C (second compound 0.03 µM, first compound 0.316 µM): 2.51%; viability, T/C (second compound 0.03 µM, first compound 1 µM): 1.83%; viability, T/C (second compound 0.03 µM, first compound 3.16 µM): 1.68%; viability, T/C (second compound 0.03 µM, first compound 10 µM): 2.01%; viability, T/C (second compound 0.0949 µM, first compound 0.0316 µM): 3.97%; viability, T/C (second compound 0.0949 µM, first compound 0.1 µM): 3.08%; viability, T/C (second compound 0.0949 µM, first compound 0.316 µM): 2.54%; viability, T/C (second compound 0.0949 µM, first compound 1 µM): 1.86%; viability, T/C (second compound 0.0949 µM, first compound 3.16 µM): 1.59%; viability, T/C (second compound 0.0949 µM, first compound 10 µM): 1.83%; viability, T/C (second compound 0.3 µM, first compound 0.0316 µM): 3.93%; viability, T/C (second compound 0.3 µM, first compound 0.1 µM): 3.43%; viability, T/C (second compound 0.3 µM, first compound 0.316 µM): 2.61%; viability, T/C (second compound 0.3 µM, first compound 1 µM): 1.6%; viability, T/C (second compound 0.3 µM, first compound 3.16 µM): 1.43%; viability, T/C (second compound 0.3 µM, first compound 10 µM): 1.82%

**Q.** Which viability, T/C (compound 0.0316 µM) does the source give for Cc1cc(C)c(CNC(=O)c2cc(-c3ccc(CN4CCOCC4)cc3)cc3c2cnn3C2CCCC2)c(=O)[nH]1 here?
**A.** 109% and 94.6% and 92.3%

**Q.** What about the viability, T/C (compound 0.1 µM) of the same molecule?
**A.** 107% and 99.1% and 103%

**Q.** What about the viability, T/C (compound 0.316 µM) of the same molecule?
**A.** 107% and 106% and 102%

**Q.** And the viability, T/C (compound 1 µM)?
**A.** 107% and 102% and 91.9%

**Q.** What about the viability, T/C (compound 3.16 µM) of the same molecule?
**A.** 104% and 95.3% and 96.5%

**Q.** What about the viability, T/C (compound 10 µM) of the same molecule?
**A.** 64.3% and 69.4% and 77.4%

**Q.** And the IC50 (curve of compound)?
**A.** > 10 µM
